Columns and labels:
[1] = Solubility in Diluent C vs ethanol control; assay type: physicochemical; details: 1:50 dilution of 1 mM stock, 30 min room temperature, centrifuged, % of absorbance of 100% ethanol control
Description: Effects of the various combinations of asymmetrical and symmetrical side chains and methine bridges on the solubility of the compounds of the present invention were examined. Solubility in a commercially available probe diluent. Diluent C, was also tested. Triplicate 1:50 dilutions of stock 1 mM probe solutions were made in either ethanol or test diluent. After 30 minutes at room temperature solutions were centrifuged at 10,000×g for 10 minutes to remove any microagregates and 100 ul aliquots were transferred to 2.0 ml of ethanol for absorbance determinations. Based on the teachings of Leung et al. and on solubility specifications found on Sigma Certificates of Analysis for the commercial diluent (diluent supernatant absorbance at 30 minutes at least 60% of ethanol supernatant absorbance after 30 minutes), a preliminary specification at least 60% of the ethanol control was set as a surrogate for solubility sufficient to achieve cell labeling with S/N ratios greater than 100 and to minimize potential problems with brightness or reproducibility of labeling. Certain example compounds were soluble after 30 minutes in Diluent C.
Diluent C is a commercially available isotonic salt-free vehicle (Sigma-Aldrich Chemical Company) that is commonly used.

[2] = Absorbance/emission spectra in ethanol; assay type: physicochemical; details: for Abs Max / Flourescence Ex Max / Fluorescence Em Max: 0.25 μM solutions in ethanol; for Extinction Coefficient: ethanol, approximate, maximum absorbance divided by nominal concentration
Description: Referring now to Tables 1 and 2, there are shown the absorbance and emission maxima of some example compounds of the present invention. Absorption and Fluorescence spectra were run using 0.25 μM solutions in ethanol on a Jasco, Inc. UV-530 UV/VIS spectrophotometer and FP 750 spectrofluorometer, respectively. Approximate extinction coefficients were estimated from the absorbance scans by dividing the maximum absorbance by the nominal concentration ([…]).

U937 cells = experiment: Probe effects on cell viability and cell growth (Maximum Tolerated Concentration); assay type: cell-based; details: for Maximum Tolerated Concentration (MTC): cultured U937 cells, 10^7 cells/ml, labeled 5 min in Diluent C, cultured 22-24 hours
Description: U937 cells were stained at a concentration of 10^7 cells/ml with increasing concentrations of probe by rapidly admixing 2× cells suspended in Diluent C with 2× probe in Diluent C. After 5 minutes at room temperature, the staining was stopped by the addition of cell culture medium. Cells were then washed thoroughly and cultured under standard conditions for 22-24 hours. Cell numbers were compared to those in a control culture treated with diluent alone.
Cells labeled with both dyes were also monitored daily for changes in mean fluorescence intensity (MFI), using a FACSAria flow cytometer with 488 nm excitation for PKH26 and 405 nm excitation for F305B. […] However, initial MFI's were high enough to detect at least 4 and possibly 5 or 6 cell doublings before the fluorescence intensity distribution of labeled cells began to overlap substantially with that of unstained cells. Color overlap of F305B into filter windows used for detection of 488 nm or 633 nm excited dyes was minimal. Since 405 nm excited dyes are less commonly available than 488 nm and 633 nm excited dyes of this nature were therefore deemed useful, despite their somewhat lesser signal:noise ratio, for providing increased flexibility in choice of spectral window to be used for monitoring membrane labeled cells and their proliferation.
Cells labeled with both dyes were also monitored daily for changes in mean fluorescence intensity (MFI), using a FACSCalibur flow cytometer with 488 nm excitation for PKH26 and 633 nm excitation for F308B.
Cells labeled either with PKH26 or with F319B were also monitored daily for changes in mean fluorescence intensity (MFI), using a FACSAria flow cytometer with 488 nm excitation for PKH26 and 785 nm excitation for F319B. […] Although the cells could only be followed for 4-5 doublings when labeled with PKH26, at least 6 doublings could be monitored using F319B before the fluorescence intensity distribution of labeled cells began to overlap substantially with that of unstained cells. Color overlap of F319B was minimal in filter windows used for detection of fluorescein, phycoerthyrin (PE), allophycocyanin (APC), and PE-Texas Red, PE-Cy5 or PerCP-Cy5.5 tandem conjugate dyes.

[3] = U937 cells stained at each dye's MTC, monitored daily for 4 days (approximately 4 doublings)

CCCCCCCCCCCCCCCCCCCCCC[N+]1=C(/C=C/C=C/C=C/C=C2/N(CCCCCCCCCCCCCC)c3ccc4ccccc4c3C2(C)C)C(C)(C)c2c1ccc1ccccc21.[I-] [Compound F277A]
Solubility >60% of EtOH Control @ 30 min [1]: 95%
Abs Max [2]: 788 nm
Flourescence Ex Max [2]: 790 nm
Fluorescence Em Max [2]: 814 nm
Extinction Coefficient [2]: 205,400 M^−1cm^−1

CCCCCCCCCCCCCCCCN1/C(=C\C=C\c2oc3ccc(C(C)(C)C)cc3[n+]2CCCCCCCCCCCCCCCC)Oc2ccc(C(C)(C)C)cc21.[I-] [Compound F304B]
Abs Max [2]: 493 nm
Flourescence Ex Max [2]: 494 nm
Fluorescence Em Max [2]: 508 nm
Extinction Coefficient [2]: 160,000 M^−1cm^−1

CCCCCCCCCCCCCCCCCCCCCC[n+]1c(/C=C2\Sc3ccccc3N2CCCCCCCCCCCCCC)sc2ccccc21.[I-] [Compound F305B]
cell growth compared with PKH26-stained cells (U937 cells; [3]): comparable growth
Maximum Tolerated Concentration (MTC) (U937 cells): 20 µmol/L
Abs Max [2]: 425 nm
Flourescence Ex Max [2]: 420 nm
Fluorescence Em Max [2]: 461 nm
Extinction Coefficient [2]: 81,200 M^−1cm^−1

CCCCCCCCCCCCCCCCCCN1/C(=C\C=C\c2oc3ccc(C(C)(C)C)cc3[n+]2CCCCCCCCCCCCCCCCCC)Oc2ccc(C(C)(C)C)cc21.[I-] [Compound F306B]
Abs Max [2]: 492 nm
Flourescence Ex Max [2]: 493 nm
Fluorescence Em Max [2]: 508 nm
Extinction Coefficient [2]: 135,000 M^−1cm^−1

CCCCCCCCCCCCCCCCCCCCCC[N+]1=C(/C=C/C=C/C=C2/N(CCCCCCCCCCCCCC)c3ccc([N+](=O)[O-])cc3C2(C)C)C(C)(C)c2ccccc21.[I-] [Compound F308B]
cell growth compared with PKH26-stained cells (U937 cells; [3]): comparable growth
Maximum Tolerated Concentration (MTC) (U937 cells): 15 µmol/L
Abs Max [2]: 649 nm
Flourescence Ex Max [2]: 493 nm
Fluorescence Em Max [2]: 671 nm
Extinction Coefficient [2]: 134,610 M^−1cm^−1

CCCCCCCCCCCCCCCCCCCCCC[N+]1=C(/C=C/C=C/C=C/C=C2/N(CCCCCCCCCCCCCC)c3ccc([N+](=O)[O-])cc3C2(C)C)C(C)(C)c2ccccc21.[I-] [Compound F319B]
cell growth compared with PKH26-stained cells (U937 cells; U937 cells, F319B 12.5 micromol/L vs PKH26 12 micromol/L, monitored daily for 6 days): comparable growth
Maximum Tolerated Concentration (MTC) (U937 cells): 20 µmol/L
Abs Max [2]: 743 nm
Fluorescence Em Max [2]: 776 nm
Extinction Coefficient [2]: 112,500 M^−1cm^−1

From patent US9597416B2, “Fluorescent membrane intercalating probes and methods for their use” (PHANOS TECHNOLOGIES, INC., priority 2005, dated 2017)
